Assay results published in article PMC6856130, “Disrupting coupling within mycobacterial F-ATP synthases subunit ε causes dysregulated energy production and cell wall biosynthesis” (Scientific Reports, 2019).

Key:
[1] = target: F-ATP synthase (subunit c) (Mycobacterium tuberculosis, UniProt A1KI93); type: biochemical
[2] = target: T1, Mtε (F-ATP synthase subunit ε) (Mycobacterium tuberculosis, UniProt P9WPV1); type: binding
T1 construct: gene atpC; recombinant Mtε, 121 residues (N-terminal domain M1-E87, C-terminal domain I90-D121), 15N-labeled
T1 sequence (P9WPV1 whole entry, the tested form may be a part): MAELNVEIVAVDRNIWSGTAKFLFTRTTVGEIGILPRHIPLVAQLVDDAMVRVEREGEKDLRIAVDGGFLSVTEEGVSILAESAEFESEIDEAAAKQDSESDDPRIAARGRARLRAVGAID

[3] = target: F-ATP synthase (subunit ε) (Mycobacterium tuberculosis, UniProt A1KI99); type: biochemical
F-ATP synthase (subunit ε) (Mycobacterium tuberculosis, UniProt A1KI99), sequence (A1KI99 whole entry): as the sequence (P9WPV1 whole entry, the tested form may be a part) above
F-ATP synthase (subunit ε) (Mycobacterium tuberculosis, UniProt A1KI99), sequence (A1KI96 whole entry partner): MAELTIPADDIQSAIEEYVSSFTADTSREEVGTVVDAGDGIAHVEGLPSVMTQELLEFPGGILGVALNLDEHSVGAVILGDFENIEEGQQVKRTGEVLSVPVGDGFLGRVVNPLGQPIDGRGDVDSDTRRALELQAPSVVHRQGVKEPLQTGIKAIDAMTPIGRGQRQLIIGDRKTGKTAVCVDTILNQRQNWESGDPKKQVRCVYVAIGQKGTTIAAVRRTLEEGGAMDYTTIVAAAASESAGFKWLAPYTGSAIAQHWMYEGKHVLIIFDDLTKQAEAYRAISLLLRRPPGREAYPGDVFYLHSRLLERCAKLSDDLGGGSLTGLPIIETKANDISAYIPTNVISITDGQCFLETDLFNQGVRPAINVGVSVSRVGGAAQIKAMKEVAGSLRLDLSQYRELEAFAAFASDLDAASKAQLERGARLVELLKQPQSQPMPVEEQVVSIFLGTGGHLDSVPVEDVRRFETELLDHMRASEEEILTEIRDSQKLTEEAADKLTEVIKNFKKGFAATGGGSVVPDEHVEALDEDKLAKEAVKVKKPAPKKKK
F-ATP synthase (subunit ε) (Mycobacterium tuberculosis, UniProt A1KI99), sequence (A1KI98 whole entry partner): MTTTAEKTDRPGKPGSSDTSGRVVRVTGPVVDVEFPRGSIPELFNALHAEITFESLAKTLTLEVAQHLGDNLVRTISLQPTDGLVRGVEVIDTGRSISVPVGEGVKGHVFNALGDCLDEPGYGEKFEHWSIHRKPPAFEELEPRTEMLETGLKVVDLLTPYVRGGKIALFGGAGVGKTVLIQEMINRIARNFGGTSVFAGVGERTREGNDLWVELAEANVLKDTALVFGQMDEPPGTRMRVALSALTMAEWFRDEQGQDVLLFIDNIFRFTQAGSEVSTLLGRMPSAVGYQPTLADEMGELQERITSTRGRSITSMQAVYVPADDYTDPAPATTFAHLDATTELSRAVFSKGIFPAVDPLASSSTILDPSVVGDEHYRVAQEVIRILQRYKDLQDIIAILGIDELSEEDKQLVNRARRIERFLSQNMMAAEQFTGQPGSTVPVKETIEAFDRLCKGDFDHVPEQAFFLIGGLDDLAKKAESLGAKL
F-ATP synthase (subunit ε) (Mycobacterium tuberculosis, UniProt A1KI99), sequence (A1KI97 whole entry partner): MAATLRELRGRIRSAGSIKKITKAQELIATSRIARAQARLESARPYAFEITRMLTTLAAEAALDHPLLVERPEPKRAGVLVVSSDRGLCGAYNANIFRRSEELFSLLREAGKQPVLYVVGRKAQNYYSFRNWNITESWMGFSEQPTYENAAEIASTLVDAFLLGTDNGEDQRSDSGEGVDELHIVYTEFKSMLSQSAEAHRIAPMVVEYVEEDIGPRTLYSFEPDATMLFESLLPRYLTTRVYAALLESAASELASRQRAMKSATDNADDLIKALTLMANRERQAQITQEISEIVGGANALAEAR
F-ATP synthase (subunit ε) (Mycobacterium tuberculosis, UniProt A1KI99), sequence (A1KI93 whole entry partner): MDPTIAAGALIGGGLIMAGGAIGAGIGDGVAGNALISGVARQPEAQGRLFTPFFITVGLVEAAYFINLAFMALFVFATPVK

[4] = target: T2, F-ATP synthase (subunit ε) (Mycolicibacterium smegmatis, UniProt A0R1Z9); assay: NADH-driven ATP synthesis of inverted membrane vesicles; type: biochemical
T2 construct: gene atpC

F-ATP synthase (subunit c), sequence (A1KI93 whole entry): as the sequence (A1KI93 whole entry partner) above
F-ATP synthase (subunit c), sequence (A1KI99 whole entry partner): as the sequence (P9WPV1 whole entry, the tested form may be a part) above
F-ATP synthase (subunit c), sequence (A1KI96 whole entry partner): as the sequence (A1KI96 whole entry partner) above
F-ATP synthase (subunit c), sequence (A1KI98 whole entry partner): as the sequence (A1KI98 whole entry partner) above

| Structure (SMILES) | IC50 [1] | 1H-15N HSQC NMR titration, Mtε:EGCG 1:2 [2] | IC50 [3] | IC50 [4] |
| --- | --- | --- | --- | --- |
| COc1nc2ccc(Br)cc2cc1[C@@H](c1ccccc1)[C@@](O)(CCN(C)C)c1cccc2ccccc12 [bedaquiline] | 7.05 ± 1.32 nM | – | – | – |
| O=C(O[C@@H]1Cc2c(O)cc(O)cc2O[C@@H]1c1cc(O)c(O)c(O)c1)c1cc(O)c(O)c(O)c1 [epigallocatechin gallate] | – | gradual line broadening with increasing molar ratios were observed, which demonstrate binding of EGCG with Mtε | 2200 ± 300 nM | 155.6 ± 1.2 nM |
